Laboratory results published in PubChem BioAssay (NCI).
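Dose response: 5 concentrations. Exposure: 48 h. Format: 96-well plates. Endpoint: linear interpolation; highest concentration if not reached. GI50 = concentration required for 50% inhibition of growth. TGI is the concentration that stops growth completely.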

Tests used:
Experiment in all cases: inhibition of tumour cell growth, NCI panel, 48 h
T-47D breast = test system: T-47D breast
CCRF-CEM leukemia = test system: CCRF-CEM leukemia
M14 melanoma = test system: M14 melanoma
RPMI-8226 leukemia = test system: RPMI-8226 leukemia
HOP-62 NSCLC = test system: HOP-62 NSCLC
SW-620 colon = test system: SW-620 colon
OVCAR-5 ovarian = test system: OVCAR-5 ovarian
TK-10 renal = test system: TK-10 renal
SF-295 CNS = test system: SF-295 CNS
NCI-H226 lung = test system: NCI-H226 lung
COLO 205 colon = test system: COLO 205 colon
EKVX NSCLC = test system: EKVX NSCLC
UACC-257 melanoma = test system: UACC-257 melanoma
SNB-19 CNS = test system: SNB-19 CNS
NCI-H23 lung = test system: NCI-H23 lung
A549 NSCLC = test system: A549 NSCLC
SNB-75 CNS = test system: SNB-75 CNS
U251 CNS = test system: U251 CNS
BT-549 breast = test system: BT-549 breast
UACC-62 melanoma = test system: UACC-62 melanoma
HL-60(TB) leukemia = test system: HL-60(TB) leukemia
SR leukemia = test system: SR leukemia
SK-MEL-28 melanoma = test system: SK-MEL-28 melanoma
MDA-MB-435 = test system: MDA-MB-435
OVCAR-4 ovarian = test system: OVCAR-4 ovarian
NCI-H522 lung = test system: NCI-H522 lung
MALME-3M melanoma = test system: MALME-3M melanoma
OVCAR-8 ovarian = test system: OVCAR-8 ovarian
HCT-116 colon = test system: HCT-116 colon
KM12 colon = test system: KM12 colon
HT29 colon = test system: HT29 colon
SK-OV-3 ovarian = test system: SK-OV-3 ovarian
MOLT-4 leukemia = test system: MOLT-4 leukemia
LOX IMVI melanoma = test system: LOX IMVI melanoma
HS 578T breast = test system: HS 578T breast
SK-MEL-5 melanoma = test system: SK-MEL-5 melanoma
MDA-MB-231 breast = test system: MDA-MB-231 breast
DU-145 prostate = test system: DU-145 prostate
HOP-92 NSCLC = test system: HOP-92 NSCLC
SF-539 CNS = test system: SF-539 CNS
PC-3 prostate = test system: PC-3 prostate
RXF 393 renal = test system: RXF 393 renal
A498 renal = test system: A498 renal
UO-31 renal = test system: UO-31 renal
MCF7 breast = test system: MCF7 breast
OVCAR-3 ovarian = test system: OVCAR-3 ovarian
SK-MEL-2 melanoma = test system: SK-MEL-2 melanoma
NCI-H460 lung = test system: NCI-H460 lung
HCC-2998 colon = test system: HCC-2998 colon
NCI/ADR-RES ovarian = test system: NCI/ADR-RES ovarian
K-562 leukemia = test system: K-562 leukemia
786-0 renal = test system: 786-0 renal
HCT-15 colon = test system: HCT-15 colon
IGROV1 ovarian = test system: IGROV1 ovarian
SN12C renal = test system: SN12C renal
SF-268 CNS = test system: SF-268 CNS
ACHN renal = test system: ACHN renal

COC(=O)C(C)NP(=O)(OCc1ccc(Cn2cnc3c(N)ncnc32)cc1)Oc1ccccc1 (stereo unspecified)
GI50 (T-47D breast): > 56.7 µM | TGI (T-47D breast): > 100 µM | GI50 (CCRF-CEM leukemia): 50 µM | TGI (CCRF-CEM leukemia): > 100 µM | GI50 (M14 melanoma): 55.4 µM | TGI (M14 melanoma): > 100 µM | GI50 (RPMI-8226 leukemia): 17.1 µM | TGI (RPMI-8226 leukemia): 65.3 µM | GI50 (HOP-62 NSCLC): > 68.6 µM | TGI (HOP-62 NSCLC): > 100 µM | GI50 (SW-620 colon): > 83.5 µM | TGI (SW-620 colon): > 100 µM | GI50 (OVCAR-5 ovarian): > 100 µM | TGI (OVCAR-5 ovarian): > 100 µM | GI50 (TK-10 renal): > 100 µM | TGI (TK-10 renal): > 100 µM | GI50 (SF-295 CNS): > 78.9 µM | TGI (SF-295 CNS): > 100 µM | GI50 (NCI-H226 lung): > 93.5 µM | TGI (NCI-H226 lung): > 100 µM | GI50 (COLO 205 colon): > 91.6 µM | TGI (COLO 205 colon): > 100 µM | GI50 (EKVX NSCLC): > 81.2 µM | TGI (EKVX NSCLC): > 100 µM | GI50 (UACC-257 melanoma): > 100 µM | TGI (UACC-257 melanoma): > 100 µM | GI50 (SNB-19 CNS): > 64.2 µM | TGI (SNB-19 CNS): > 100 µM | GI50 (NCI-H23 lung): 36.5 µM | TGI (NCI-H23 lung): > 100 µM | GI50 (A549 NSCLC): > 84.2 µM | TGI (A549 NSCLC): > 100 µM | GI50 (SNB-75 CNS): 40.1 µM | TGI (SNB-75 CNS): > 100 µM | GI50 (U251 CNS): 37.3 µM | TGI (U251 CNS): > 100 µM | GI50 (BT-549 breast): 24.2 µM | TGI (BT-549 breast): 72.5 µM | GI50 (UACC-62 melanoma): 28.6 µM | TGI (UACC-62 melanoma): > 94.1 µM | GI50 (HL-60(TB) leukemia): 79.9 µM | TGI (HL-60(TB) leukemia): > 100 µM | GI50 (SR leukemia): > 100 µM | TGI (SR leukemia): > 100 µM | GI50 (SK-MEL-28 melanoma): 30.4 µM | TGI (SK-MEL-28 melanoma): > 84.9 µM | GI50 (MDA-MB-435): 43 µM | TGI (MDA-MB-435): > 100 µM | GI50 (OVCAR-4 ovarian): > 100 µM | TGI (OVCAR-4 ovarian): > 100 µM | GI50 (NCI-H522 lung): 28.4 µM | TGI (NCI-H522 lung): > 69 µM | GI50 (MALME-3M melanoma): 20.8 µM | TGI (MALME-3M melanoma): 57 µM | GI50 (OVCAR-8 ovarian): 76.8 µM | TGI (OVCAR-8 ovarian): > 100 µM | GI50 (HCT-116 colon): 26 µM | TGI (HCT-116 colon): 63.4 µM | GI50 (KM12 colon): 25.2 µM | TGI (KM12 colon): > 96.1 µM | GI50 (HT29 colon): > 67.8 µM | TGI (HT29 colon): > 100 µM | GI50 (SK-OV-3 ovarian): > 100 µM | TGI (SK-OV-3 ovarian): > 100 µM | GI50 (MOLT-4 leukemia): 32.2 µM | TGI (MOLT-4 leukemia): > 100 µM | GI50 (LOX IMVI melanoma): 21.4 µM | TGI (LOX IMVI melanoma): 53.8 µM | GI50 (HS 578T breast): 15.5 µM | TGI (HS 578T breast): 49.7 µM | GI50 (SK-MEL-5 melanoma): 6.39 µM | TGI (SK-MEL-5 melanoma): 33.4 µM | GI50 (MDA-MB-231 breast): > 63.4 µM | TGI (MDA-MB-231 breast): > 100 µM | GI50 (DU-145 prostate): > 100 µM | TGI (DU-145 prostate): > 100 µM | GI50 (HOP-92 NSCLC): 29.8 µM | TGI (HOP-92 NSCLC): > 100 µM | GI50 (SF-539 CNS): > 100 µM | TGI (SF-539 CNS): > 100 µM | GI50 (PC-3 prostate): 31.3 µM | TGI (PC-3 prostate): > 100 µM | GI50 (RXF 393 renal): 81.5 µM | TGI (RXF 393 renal): > 100 µM | GI50 (A498 renal): > 100 µM | TGI (A498 renal): > 100 µM | GI50 (UO-31 renal): > 100 µM | TGI (UO-31 renal): > 100 µM | GI50 (MCF7 breast): 36.8 µM | TGI (MCF7 breast): > 100 µM | GI50 (OVCAR-3 ovarian): 34.7 µM | TGI (OVCAR-3 ovarian): > 82.1 µM | GI50 (SK-MEL-2 melanoma): > 73.9 µM | TGI (SK-MEL-2 melanoma): > 100 µM | GI50 (NCI-H460 lung): 67.9 µM | TGI (NCI-H460 lung): > 100 µM | GI50 (HCC-2998 colon): 27.7 µM | TGI (HCC-2998 colon): 84.4 µM | GI50 (NCI/ADR-RES ovarian): > 100 µM | TGI (NCI/ADR-RES ovarian): > 100 µM | GI50 (K-562 leukemia): > 93.1 µM | TGI (K-562 leukemia): > 100 µM | GI50 (786-0 renal): > 100 µM | TGI (786-0 renal): > 100 µM | GI50 (HCT-15 colon): > 100 µM | TGI (HCT-15 colon): > 100 µM | GI50 (IGROV1 ovarian): 39.1 µM | TGI (IGROV1 ovarian): > 100 µM | GI50 (SN12C renal): 73.4 µM | TGI (SN12C renal): > 100 µM | GI50 (SF-268 CNS): 36.9 µM | TGI (SF-268 CNS): > 100 µM | GI50 (ACHN renal): > 100 µM | TGI (ACHN renal): > 100 µM

COc1ccc2c(c1OC)OC[C@@H](C1=CC(=O)C=C(O)C1=O)C2
TGI (T-47D breast): 20.3 µM | TGI (CCRF-CEM leukemia): 3.81 µM | TGI (M14 melanoma): 26.8 µM | TGI (RPMI-8226 leukemia): 5.18 µM | TGI (HOP-62 NSCLC): 64.5 µM | TGI (SW-620 colon): 26.2 µM | TGI (OVCAR-5 ovarian): 40 µM | TGI (TK-10 renal): 27.3 µM | TGI (SF-295 CNS): 30.7 µM | TGI (NCI-H226 lung): 46.7 µM | TGI (COLO 205 colon): 43.3 µM | TGI (EKVX NSCLC): 18.3 µM | TGI (UACC-257 melanoma): 26.1 µM | TGI (SNB-19 CNS): 34.7 µM | TGI (NCI-H23 lung): 33.8 µM | TGI (A549 NSCLC): 35.8 µM | TGI (SNB-75 CNS): 23.6 µM | TGI (U251 CNS): 24.5 µM | TGI (BT-549 breast): 26 µM | TGI (UACC-62 melanoma): 25.1 µM | TGI (HL-60(TB) leukemia): 1.88 µM | TGI (SR leukemia): 19.2 µM | TGI (SK-MEL-28 melanoma): > 58.5 µM | TGI (MDA-MB-435): 23.9 µM | TGI (OVCAR-4 ovarian): 24.1 µM | TGI (NCI-H522 lung): 8.9 µM | TGI (MALME-3M melanoma): 24.7 µM | TGI (OVCAR-8 ovarian): 69.3 µM | TGI (HCT-116 colon): 17.4 µM | TGI (KM12 colon): 27.5 µM | TGI (HT29 colon): 55.8 µM | TGI (SK-OV-3 ovarian): 30.3 µM | TGI (MOLT-4 leukemia): 5.31 µM | TGI (LOX IMVI melanoma): 13.1 µM | TGI (HS 578T breast): 60.1 µM | TGI (SK-MEL-5 melanoma): 27 µM | TGI (MDA-MB-231 breast): 10.4 µM | TGI (DU-145 prostate): 29.3 µM | TGI (HOP-92 NSCLC): 4.12 µM | TGI (SF-539 CNS): 26.8 µM | TGI (PC-3 prostate): 26.8 µM | TGI (RXF 393 renal): 19.1 µM | TGI (A498 renal): 32.1 µM | TGI (UO-31 renal): 25.9 µM | TGI (MCF7 breast): 27 µM | TGI (OVCAR-3 ovarian): 26.3 µM | TGI (SK-MEL-2 melanoma): 29 µM | TGI (NCI-H460 lung): 27.4 µM | TGI (HCC-2998 colon): 32.3 µM | TGI (NCI/ADR-RES ovarian): 79.1 µM | TGI (K-562 leukemia): 11.8 µM | TGI (786-0 renal): 16.9 µM | TGI (HCT-15 colon): 31 µM | TGI (IGROV1 ovarian): 25.2 µM | TGI (SN12C renal): 37 µM | TGI (SF-268 CNS): 38.1 µM | TGI (ACHN renal): 11.3 µM
